Results from patent US20260028354A1, “TETRAHYDRONAPHTHALENE DERIVATIVES AS ESTROGEN RECEPTOR DEGRADERS” (REGENT OF THE UNIVERSITY OF MICHIGAN, priority 2022, published 2026).

The molecules below were run on MCF-7 cells (assay: CellTiter-Glo (CTG) cell proliferation assay in MCF-7 cells). Details: Homo sapiens, MCF7, 144 h, MCF-7 cell proliferation, Day 6.
Assay type: cell-based
From the text: CellTiter-Glo® (CTG) Assays in MCF-7 and T47D Cell Lines.
In vitro Assay: MCF-7 and T47D CTG assay

| Structure (SMILES) | IC50 |
| --- | --- |
| COc1cc(N2CCC3(CC2)C[C@H](CN2CCC4(CC2)COc2c4cc(C)c4c2CN([C@H]2CCC(=O)NC2=O)C4=O)CO3)c(F)cc1[C@@H]1c2ccc(O)cc2CC[C@@H]1c1ccccc1 [Compound A208, (3S)-3-[1′-[[(3R)-8-[2-fluoro-4-[(1S,2S)-6-hydroxy-2-phenyl-tetralin-1-yl]-5-methoxy-phenyl]-1-oxa-8-azaspiro[4.5]decan-3-yl]methyl]-5-methyl-6-oxo-spiro[2,8-dihydrofuro[2,3-e]isoindole-3,4′-piperidine]-7-yl]piperidine-2,6-dione] | 10 to 100 nM |
| Cc1cc2c(c3c1C(=O)N([C@H]1CCC(=O)NC1=O)C3)OCC21CCN(C[C@@H]2CCC3(CCN(c4ccc([C@@H]5c6ccc(O)cc6CC[C@@H]5c5ccccc5)cc4)CC3)OC2)CC1 [Compound A209, (S)-3-(1′-(((S)-9-(4-((1R,2S)-6-hydroxy-2-phenyl-1,2,3,4-tetrahydronaphthalen-1-yl)phenyl)-1-oxa-9-azaspiro[5.5]undecan-3-yl)methyl)-5-methyl-6-oxo-6,8-dihydro-2H,7H-spiro[furo[2,3-e]isoindole-3,4′-piperidin]-7-yl)piperidine-2,6-dione] | < 10 nM |
| COc1cc(N2CCC(CCN3CCC4(CC3)COc3c4cc(C)c4c3CN([C@H]3CCC(=O)NC3=O)C4=O)CC2)c(F)cc1[C@@H]1c2ccc(O)cc2CC[C@@H]1c1ccccc1 [Compound A213, (S)-3-(1′-(2-(1-(2-fluoro-4-((1S,2S)-6-hydroxy-2-phenyl-1,2,3,4-tetrahydronaphthalen-1-yl)-5-methoxyphenyl)piper-idin-4-yl)ethyl)-5-methyl-6-oxo-6,8-dihydro-2H,7H-spiro [furo[2,3-e]isoindole-3,4′-piperidin]-7-yl)piperidine-2,6-dione] | < 10 nM |
| Cc1cc2c(c3c1C(=O)N([C@H]1CCC(=O)NC1=O)C3)OCC21CCN(CC2CC3(CCN(c4ccc([C@@H]5c6ccc(O)cc6CC[C@@H]5c5ccccc5)cc4)CC3)C2)CC1 [Compound A214, (S)-3-(1′-((7-(4-((1R,2S)-6-hydroxy-2-phenyl-1,2,3,4-tetra-hydronaphthalen-1-yl)phenyl)-7-azaspiro[3.5]nonan-2-yl)-methyl)-5-methyl-6-oxo-6,8-dihydro-2H,7H-spiro[furo[2,3-c]isoindolc-3,4′-pipcridin]-7-yl)piperidine-2,6-dione] | < 10 nM |
| COc1cc(N2CCC(CCN3CCC4(CC3)COc3c4cc4c(c3Cl)C(=O)N([C@H]3CCC(=O)NC3=O)C4)CC2)c(F)cc1[C@@H]1c2ccc(O)cc2CC[C@@H]1c1ccccc1 [Compound A217, (S)-3-(8-chloro-1′-(2-(1-(2-fluoro-4-((1S,2S)-6-hydroxy-2-phenyl-1,2,3,4-tetrahydronaph-thalen-1-yl)-5-methoxyphenyl)-piperidin-4-yl)ethyl)-7-oxo-5,7-dihydro-2H,6H-spiro[furo[2,3-f]isoindole-3,4′-piperidin]-6-yl)piperidine-2,6-dione] | < 10 nM |
| COc1cc(N2CCC3(CC2)CC(CN2CCC4(CC2)COc2c4cc4c(c2C)C(=O)N([C@@H]2CCC(=O)NC2=O)C4)C3)c(F)cc1[C@@H]1c2ccc(O)cc2CC[C@@H]1c1ccccc1 [Compound A219, (R)-3-(1′-((7-(2-fluoro-4-((1S, 2S)-6-hydroxy-2-phenyl-1,2,3,4-tetrahydronaphthalen-1-yl)-5-methoxyphenyl)-7-aza-spiro[3.5]nonan-2-yl)methyl)-8-methyl-7-oxo-5,7-dihydro-2H,6H-spiro[furo[2,3-f]iso-indole-3,4′-piperidin]-6-yl)-piperidine-2,6-dione] | < 10 nM |
| COc1cc(N2CCC3(CC2)CC(CN2CCC4(CC2)COc2c4cc4c(c2C)C(=O)N([C@H]2CCC(=O)NC2=O)C4)C3)c(F)cc1[C@@H]1c2ccc(O)cc2CC[C@@H]1c1ccccc1 [Compound A220, (S)-3-(1′-((7-(2-fluoro-4-((1S,2S)-6-hydroxy-2-phenyl-1,2,3,4-tetrahydronaphthalen-1-yl)-5-methoxyphenyl)-7-aza-spiro[3.5]nonan-2-yl)methyl)-8-methyl-7-oxo-5,7-dihydro-2H,6H-spiro[furo[2,3-f]iso-indole-3,4′-piperidin]-6-yl)-piperidine-2,6-dione] | < 10 nM |
| COc1cc(N2CCC3(CC2)CC(CN2CCN4c5cc(Cl)c6c(c5OC[C@H]4C2)CN([C@H]2CCC(=O)NC2=O)C6=O)C3)c(F)cc1[C@@H]1c2ccc(O)cc2CC[C@@H]1c1ccccc1 [Compound A221, (S)-3-((R)-12-chloro-7-((7-(2-fluoro-4-((1S,2S)-6-hydroxy-2-phenyl-1,2,3,4-tetrahydronaph-thalen-1-yl)-5-methoxyphenyl)-7-azaspiro[3.5]nonan-2-yl)-methyl)-1-oxo-1,3,5,5a,6,7,8,9-octahydro-2H-pyrazino[1′,2′: 4,5][1,4]oxazino[2,3-e]isoindol-2-yl)piperidine-2,6-dione] | > 100 nM |
| COc1cc(N2CCC3(CC2)CC(CN2CCC4(CC2)COc2c4cc(OC)c4c2CN([C@@H]2CCC(=O)NC2=O)C4=O)C3)c(F)cc1[C@@H]1c2ccc(O)cc2CC[C@@H]1c1ccccc1 [Compound A223, (R)-3-(1′-((7-(2-fluoro-4-((1S,2S)-6-hydroxy-2-phenyl-1,2,3,4-tetrahydronaphthalen-1-yl)-5-methoxyphenyl)-7-azaspiro[3.5]nonan-2-yl)methyl)-5-methoxy-6-oxo-6,8-dihydro-2H,7H-spiro[furo[2,3-e]isoindole-3,4′-piperidin]-7-yl)piperidine-2,6-dione] | < 10 nM |
| COc1cc(N2CCC(CCN3CCN4c5cc(Cl)c6c(c5OC[C@H]4C3)CN([C@H]3CCC(=O)NC3=O)C6=O)CC2)c(F)cc1[C@@H]1c2ccc(O)cc2CC[C@@H]1c1ccccc1 [Compound A224, (S)-3-((R)-12-chloro-7-(2-(1-(2-fluoro-4-((1S,2S)-6-hydroxy-2-phenyl-1,2,3,4-tetrahydronaphthalen-1-yl)-5-methoxyphenyl)piperidin-4-yl)ethyl)-1-oxo-1,3,5,5a,6,7,8,9-octahydro-2H-pyrazino[1′,2′: 4,5][1,4]oxazino[2,3-e]isoindol-2-yl)piperidine-2,6-dione] | 10 to 100 nM |
| COc1cc(N2CCC(CCN3CCC4(CC3)COc3c4cc(OC)c4c3CN([C@@H]3CCC(=O)NC3=O)C4=O)CC2)c(F)cc1[C@@H]1c2ccc(O)cc2CC[C@@H]1c1ccccc1 [Compound A225, (R)-3-(1′-(2-(1-(2-fluoro-4-((1S,2S)-6-hydroxy-2-phenyl-1,2,3,4-tetrahydronaphthalen-1-yl)-5-methoxyphenyl)piperidin-4-yl)ethyl)-5-methoxy-6-oxo-6,8-dihydro-2H,7H-spiro[furo[2,3-e]isoindole-3,4′-piperidin]-7-yl)piperidine-2,6-dione] | < 10 nM |
| COc1cc(N2CCC3(CC2)CC(CN2CCN4c5cc(C)c6c(c5OC[C@H]4C2)CN([C@H]2CCC(=O)NC2=O)C6=O)C3)c(F)cc1[C@@H]1c2ccc(O)cc2CC[C@@H]1c1ccccc1 [Compound A228, (S)-3-((R)-7-((7-(2-fluoro-4-((1S,2S)-6-hydroxy-2-phenyl-1,2,3,4-tetrahydronaphthalen-1-yl)-5-methoxyphenyl)-7-aza-spiro[3.5]nonan-2-yl)methyl)-12-methyl-1-oxo-1,3,5,5a,6,7,8,9-octahydro-2H-pyrazino [1′,2′:4,5][1,4]oxazino[2,3-e]isoindol-2-yl)piperidine-2,6-dione] | 10 to 100 nM |
